In ChEMBL document CHEMBL1126118, “Synthesis and biological activity of ketomethylene pseudopeptide analogues as thrombin inhibitors” (J Med Chem, 1992):
pKi: −log10 of the molar value.

Experiments:
[1] = organism: Homo sapiens; assay: Concentration required to double the human alpha-thrombin induced clotting time of human plasma; format: functional
[2] = target: Prothrombin (Homo sapiens, UniProt P00734); assay: In vitro inhibitory activity against thrombin
[3] = target: Plasminogen (Rattus norvegicus, UniProt Q01177); assay: In vitro inhibitory activity against plasmin
[4] = target: Coagulation factor X (Homo sapiens, UniProt P00742); assay: In vitro inhibitory activity against Coagulation factor X
[5] = target: Kallikrein-1 (Homo sapiens, UniProt P06870); assay: In vitro inhibitory activity against Kallikrein
[6] = organism: Homo sapiens; assay: Concentration required to double the activated partial thromboplastin time of human plasma was measured; format: functional
[7] = target: Urokinase-type plasminogen activator (Homo sapiens, UniProt P00749); assay: In vitro inhibitory activity against Urokinase-type plasminogen activator

Chain of Plasminogen (Q01177 97-581 limits assumed): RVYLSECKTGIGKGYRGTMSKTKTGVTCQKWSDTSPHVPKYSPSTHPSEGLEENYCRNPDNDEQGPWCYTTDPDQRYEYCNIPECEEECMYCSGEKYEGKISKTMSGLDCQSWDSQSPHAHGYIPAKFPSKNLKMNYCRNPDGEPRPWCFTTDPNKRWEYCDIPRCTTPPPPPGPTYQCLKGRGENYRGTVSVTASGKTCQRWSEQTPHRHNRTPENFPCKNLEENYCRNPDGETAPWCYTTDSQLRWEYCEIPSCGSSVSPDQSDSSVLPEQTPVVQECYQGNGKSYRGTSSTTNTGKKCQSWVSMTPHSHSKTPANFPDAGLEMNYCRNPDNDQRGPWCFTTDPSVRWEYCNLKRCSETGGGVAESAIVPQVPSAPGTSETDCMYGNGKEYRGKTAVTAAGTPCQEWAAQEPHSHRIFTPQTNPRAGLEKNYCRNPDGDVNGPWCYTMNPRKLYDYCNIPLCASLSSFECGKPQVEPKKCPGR
Chain of Plasminogen (Q01177 582-812 limits assumed): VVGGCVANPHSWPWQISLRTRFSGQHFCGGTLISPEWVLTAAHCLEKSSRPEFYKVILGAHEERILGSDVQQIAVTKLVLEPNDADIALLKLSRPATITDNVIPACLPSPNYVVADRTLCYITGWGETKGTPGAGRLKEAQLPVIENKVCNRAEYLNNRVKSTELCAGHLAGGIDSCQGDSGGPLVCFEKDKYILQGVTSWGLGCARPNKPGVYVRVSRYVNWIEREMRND
Chain of Coagulation factor X (P00742 41-179 limits assumed): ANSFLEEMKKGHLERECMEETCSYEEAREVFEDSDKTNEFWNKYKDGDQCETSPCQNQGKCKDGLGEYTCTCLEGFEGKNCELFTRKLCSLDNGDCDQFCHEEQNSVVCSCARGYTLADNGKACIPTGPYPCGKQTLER
Chain of Coagulation factor X (P00742 235-488 limits assumed): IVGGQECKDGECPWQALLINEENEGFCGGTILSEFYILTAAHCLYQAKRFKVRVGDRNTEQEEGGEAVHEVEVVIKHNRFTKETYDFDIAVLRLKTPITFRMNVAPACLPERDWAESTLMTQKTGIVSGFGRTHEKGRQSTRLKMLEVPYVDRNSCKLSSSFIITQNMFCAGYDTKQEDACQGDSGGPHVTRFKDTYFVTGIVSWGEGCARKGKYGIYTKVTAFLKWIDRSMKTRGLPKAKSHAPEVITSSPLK
Chain of Kallikrein-1 (P06870 whole entry): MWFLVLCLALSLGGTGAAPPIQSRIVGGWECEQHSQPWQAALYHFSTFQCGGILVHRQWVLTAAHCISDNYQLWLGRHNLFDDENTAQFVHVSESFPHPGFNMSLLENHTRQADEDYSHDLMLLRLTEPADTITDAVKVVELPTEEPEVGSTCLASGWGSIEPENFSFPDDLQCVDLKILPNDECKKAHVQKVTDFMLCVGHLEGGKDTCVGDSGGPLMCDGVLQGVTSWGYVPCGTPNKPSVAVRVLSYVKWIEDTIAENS

| Structure (SMILES) | TT [1] | pKi [2] | pKi [3] | pKi [4] | pKi [5] | APTT [6] | pKi [7] |
| --- | --- | --- | --- | --- | --- | --- | --- |
| NC(N)=NCCCC(NC(=O)[C@@H]1CCCN1C(=O)C(N)Cc1ccc2ccccc2c1)C(=O)CCC(=O)N1CCCCC1.O=C(O)C(F)(F)F.O=C(O)C(F)(F)F (stereo partly specified) | 90 µM | 4.94 | – | – | – | – | – |
| NC(N)=NCCCC(NC(=O)[C@@H]1CCCN1C(=O)[C@H](N)C(c1ccccc1)c1ccccc1)C(=O)CCC(=O)N1CCCCC1.O=C(O)C(F)(F)F.O=C(O)C(F)(F)F (stereo partly specified) | 0.65 µM | 6.70 | 3.80 | 3.83 | 3.70 | 8 µM | 3.31 |
| NC(N)=NCCCC(NC(=O)[C@@H]1CCCN1C(=O)[C@H](N)Cc1ccccc1)C(=O)CCC(=O)N1CCCCC1 (stereo partly specified) | 4.9 µM | – | – | – | – | – | – |
| NC(N)=NCCCC(NC(=O)[C@@H]1CCCN1C(=O)[C@@H](N)C(c1ccccc1)c1ccccc1)C(=O)CCC(=O)N1CCCCC1.O=C(O)C(F)(F)F.O=C(O)C(F)(F)F (stereo partly specified) | 7.5 µM | 5.77 | – | – | – | 100 µM | – |
| NC(N)=NCCCC(NC(=O)[C@@H]1CCCN1C(=O)C(N)C(c1ccccc1)c1ccccc1)C(=O)CCC(=O)N1CCCCC1.O=C(O)C(F)(F)F.O=C(O)C(F)(F)F (stereo partly specified) | – | 6.22 | – | – | – | 45 µM | – |
| NC(N)=NCCCC(NC(=O)[C@@H]1CCCN1C(=O)[C@H](N)Cc1ccc2ccccc2c1)C(=O)CCC(=O)N1CCCCC1 (stereo partly specified) | – | 5.64 | – | – | – | – | – |
